Data as given in patent US20120122848A1, “(+)-3-HYDROXYMORPHINAN DERIVATIVES AS NEUROPROTECTANTS” (GREEN CROSS CORPORATION, priority 2009, published 2012).
Counter-ions that a name gives are not always drawn.

Experiments:
[1] = Cell cytotoxicity test: protection of HT22 cells against glutamate toxicity (EC50) and cytotoxicity of the compounds (CC50), MTT; type: cell-based, mouse; details: mouse, HT22 cells (mouse hippocampal neuron)
Procedure: (§1) HT22 cells (mouse hippocampal neuron, Salk Institute and KRIBB) were plated in a 96-well plate at a density of 3×10^3 cells/well for 16 hrs before treatment. The cells were treated with five millimolar glutamate and various concentrations of the inventive compounds and incubated for 24 hrs in a growth media (DMEM with 10% FBS and 1% penicillin streptomycin). Then, the cells were treated with 3-(4,5-dimethylthiazol-2-yl)-2,5-diphenyltetrazolium bromide (MTT, Sigma®) for 4 hrs and absorbance of each well was measured with a plate reader at a wavelength of 450 nm. [Da-Qing, et. al., Anti-oxidant and anti-inflammatory activities of macelignan in murine hippocampal cell line and primary culture of rat microglia cells, BBRC, 2005, 331, 1264-1269].
(§2) In Table 1, EC50 is neuroprotective effect against glutamate toxicity and CC50 is cytotoxicity of the compounds. The EC50 values were statistically analyzed using Prizm® (GraphPad Software Inc., San Diego, Calif., USA).

[2] = system: HT22 cells (mouse hippocampal neuron); test: as above; type: cell-based; details: Mus musculus, HT-22, five millimolar glutamate, 24 hrs, read-out: EC50 (neuroprotective effect against glutamate toxicity)
Procedure: as §1, §2

CC1CCN(c2cc3c(cc2O)[C@]24CCCC[C@@H]2[C@H](C3)NCC4)CC1 [Example 19, (+)-3-Hydroxy-2-(4-methylpiperidin-1-yl)morphinan TFA salt]
CC50 at 24 h [1]: 8.04 µM
EC50 [2]: 0.272 µM

O=C(Nc1ccccc1)Nc1ccccc1Nc1cc2c(cc1O)[C@]13CCCC[C@@H]1[C@H](C2)NCC3 [Example 122, (+)-3-Hydroxy-2-(2-(phenylureido)phenylamino)morphinan TFA salt]
CC50 at 24 h [1]: 33.8 µM
EC50 [2]: 3.7 µM

Oc1c(F)cc2c(c1Cl)[C@]13CCCC[C@@H]1[C@H](C2)NCC3 [Example 2, (+)-4-Chloro-2-fluoro-3-hydroxymorphinan TFA salt]
EC50 [2]: 50 µM

CCCNc1cc2c(cc1O)[C@]13CCCC[C@@H]1[C@H](C2)NCC3 [Example 88, (+)-3-Hydroxy-2-propylaminomorphinan TFA salt]
CC50 at 24 h [1]: 37.2 µM
EC50 [2]: 0.0416 µM

Oc1cc2c(cc1Nc1cccc(F)c1O)C[C@@H]1NCC[C@]23CCCC[C@H]13 [Example 57, (+)-2-(3-Fluoro-2-hydroxyphenylamino)-3-hydroxymorphinan TFA salt]
CC50 at 24 h [1]: 5.5 µM
EC50 [2]: 0.199 µM

Oc1cc2c(cc1-c1ccc(C(F)(F)F)cc1)C[C@@H]1NCC[C@]23CCCC[C@H]13 [Example 79, (+)-3-Hydroxy-2-(4-trifluorophenyl)morphinan TFA salt]
CC50 at 24 h [1]: 11 µM
EC50 [2]: 6.1 µM

Oc1cc2c(cc1N1CCOCC1)C[C@@H]1NCC[C@]23CCCC[C@H]13 [Example 86, (+)-3-Hydroxy-2-morpholinomorphinan TFA salt]
CC50 at 24 h [1]: > 100 µM
EC50 [2]: 1.55 µM

Oc1cc2c(cc1-c1ccc(Cl)cc1)C[C@@H]1NCC[C@]23CCCC[C@H]13 [Example 74, (+)-2-(4-Chlorophenol)-3-hydroxymorphinan TFA salt]
EC50 [2]: 0.796 µM

CN(c1ccc(F)cc1)c1cc2c(cc1O)[C@]13CCCC[C@@H]1[C@H](C2)NCC3 [Example 124, (+)-2-(4-Fluorophenyl(methyl)amino)-3-hydroxymorphinan TFA salt]
CC50 at 24 h [1]: 6.4 µM
EC50 [2]: 0.371 µM

CN1CCN(c2cc3c(cc2O)[C@]24CCCC[C@@H]2[C@H](C3)NCC4)CC1 [Example 24, (+)-3-Hydroxy-2-(4-methylpiperazin-1-yl)morphinan 2TFA salt]
CC50 at 24 h [1]: 14.4 µM
EC50 [2]: 3.1 µM

Oc1cc2c(cc1Nc1ccccc1Cl)C[C@@H]1NCC[C@]23CCCC[C@H]13 [Example 48, (+)-2-(2-Chlorophenylamino)-3-hydroxymorphinan TFA salt]
CC50 at 24 h [1]: 2.7 µM
EC50 [2]: 0.0991 µM

CCN(CC)c1ccccc1Nc1cc2c(cc1O)[C@]13CCCC[C@@H]1[C@H](C2)NCC3 [Example 129, (+)-2-(2-(Diethylamino)phenylamino)-3-hydroxymorphinan TFA salt]
CC50 at 24 h [1]: 1.6 µM
EC50 [2]: 0.0439 µM

Oc1cc2c(cc1NC1CCCCC1)C[C@@H]1NCC[C@]23CCCC[C@H]13 [Example 93, (+)-2-Cyclohexylamino-3-hydroxymorphinan TFA salt]
CC50 at 24 h [1]: 13.8 µM
EC50 [2]: 0.0986 µM

Oc1cc2c(cc1Nc1cccc3cccnc13)C[C@@H]1NCC[C@]23CCCC[C@H]13 [Example 66, TFA salt]
CC50 at 24 h [1]: 2.9 µM
EC50 [2]: 0.0213 µM

CCNC(=O)Nc1ccccc1Nc1cc2c(cc1O)[C@]13CCCC[C@@H]1[C@H](C2)NCC3 [Example 120, (+)-2-(2-(Ethylureido)phenylamino)-3-hydroxymorphinan TFA salt]
CC50 at 24 h [1]: 36.5 µM
EC50 [2]: 8.85 µM

Oc1cc2c(cc1Nc1ccccc1C(F)(F)F)C[C@@H]1NCC[C@]23CCCC[C@H]13 [Example 52, (+)-3-Hydroxy-2-(2-(trifluoromethyl)phenylamino)morphinan TFA salt]
CC50 at 24 h [1]: 1.5 µM
EC50 [2]: 0.0249 µM

CCCN(C)c1cc2c(cc1O)[C@]13CCCC[C@@H]1[C@H](C2)NCC3 [Example 102, (+)-3-Hydroxy-2-(methylpropylamino)morphinan TFA salt]
CC50 at 24 h [1]: 29.6 µM
EC50 [2]: 0.548 µM

CCc1ccc(Nc2cc3c(cc2O)[C@]24CCCC[C@@H]2[C@H](C3)NCC4)cc1 [Example 53, (+)-2-(4-Ethylphenylamino)-3-hydroxymorphinan TFA salt]
CC50 at 24 h [1]: 1.6 µM
EC50 [2]: 0.0402 µM

Oc1cc2c(cc1Nc1ccc(OC(F)(F)F)cc1)C[C@@H]1NCC[C@]23CCCC[C@H]13 [Example 58, (+)-3-Hydroxy-2-(4-(trifluoromethoxy)phenylamino)morphinan TFA salt]
CC50 at 24 h [1]: 1.4 µM
EC50 [2]: 0.131 µM

CCCCS(=O)(=O)Nc1ccccc1Nc1cc2c(cc1O)[C@]13CCCC[C@@H]1[C@H](C2)NCC3 [Example 112, (+)-2-(2-(Butanesulfonamido)phenylamino)-3-hydroxymorphinan TFA salt]
CC50 at 24 h [1]: 20 µM
EC50 [2]: 0.0556 µM

COc1ccc(Nc2cc3c(cc2O)[C@]24CCCC[C@@H]2[C@H](C3)NCC4)c(OC)c1 [Example 40, (+)-2-(2,4-Dimethoxyphenylamino)-3-hydroxymorphinan TFA salt]
CC50 at 24 h [1]: 7.2 µM
EC50 [2]: 0.033 µM

Oc1cc2c(cc1NC1CCCC1)C[C@@H]1NCC[C@]23CCCC[C@H]13 [Example 92, (+)-2-Cyclopentylamino-3-hydroxymorphinan TFA salt]
CC50 at 24 h [1]: 378 µM
EC50 [2]: 0.0927 µM

Oc1c(F)cc2c(c1Br)[C@]13CCCC[C@@H]1[C@H](C2)NCC3 [Example 3, (+)-4-Bromo-2-fluoro-3-hydroxymorphinan TFA salt]
EC50 [2]: 19.8 µM

Oc1cc2c(cc1Nc1ccc(Br)cc1)C[C@@H]1NCC[C@]23CCCC[C@H]13 [Example 33, (+)-2-(4-Bromophenylamino)-3-hydroxymorphinan TFA salt]
CC50 at 24 h [1]: 1.67 µM
EC50 [2]: 0.0697 µM

Oc1cc2c(cc1Nc1ccccc1-c1ccccc1)C[C@@H]1NCC[C@]23CCCC[C@H]13 [Example 60, (+)-2-(Biphenyl-2-ylamino)-3-hydroxymorphinan TFA salt]
CC50 at 24 h [1]: 1.4 µM
EC50 [2]: 0.019 µM

CS(=O)(=O)Nc1ccc(Nc2cc3c(cc2O)[C@]24CCCC[C@@H]2[C@H](C3)NCC4)cc1 [Example 114, (+)-3-Hydroxy-2-(4-(methanesulfonamido)phenylamino)morphinan TFA salt]
CC50 at 24 h [1]: 11.4 µM
EC50 [2]: 0.0329 µM

COc1cc2c(cc1O)[C@]13CCCC[C@@H]1[C@H](C2)NCC3 [Example 12, (+)-3-Hydroxy-2-methoxymorphinan TFA salt]
EC50 [2]: 24.4 µM

Oc1c(Br)cc2c(c1Br)[C@]13CCCC[C@@H]1[C@H](C2)NCC3 [Example 6, (+)-2,4-Dibromo-3-hydroxymorphinan TFA salt]
EC50 [2]: 9.57 µM

Oc1cc2c(cc1I)C[C@@H]1NCC[C@]23CCCC[C@H]13 [Example 9, (+)-3-Hydroxy-2-iodomorphinan TFA salt]
EC50 [2]: 10.2 µM

Oc1c(Cl)cc2c(c1Cl)[C@]13CCCC[C@@H]1[C@H](C2)NCC3 [Example 4, (+)-2,4-Dichloro-3-hydroxymorphinan TFA salt]
EC50 [2]: 10.9 µM

Oc1ccc2c(c1Cl)[C@]13CCCC[C@@H]1[C@H](C2)NCC3 [Example 5, (+)-4-Chloro-3-hydroxymorphinan TFA salt]
EC50 [2]: 9.33 µM

CCCCNC(=S)Nc1ccccc1Nc1cc2c(cc1O)[C@]13CCCC[C@@H]1[C@H](C2)NCC3 [Example 123, (+)-2-(2-(Butylthioureido)phenylamino)-3-hydroxymorphinan TFA salt]
EC50 [2]: 0.459 µM

O=C(O)c1cc2c(cc1O)[C@]13CCCC[C@@H]1[C@H](C2)NCC3 [Example 14, ((+)-3-Hydroxymorphinan)-2-carboxylic acid TFA salt]
EC50 [2]: 86.3 µM

Oc1cc2c(cc1F)C[C@@H]1NCC[C@]23CCCC[C@H]13 [Example 1, (+)-2-Fluoro-3-hydroxymorphinan TFA salt]
EC50 [2]: 9.68 µM

Cc1cc2c(cc1O)[C@]13CCCC[C@@H]1[C@H](C2)NCC3 [Example 85, (+)-3-Hydroxy-2-methylmorphinan TFA salt]
EC50 [2]: 8.39 µM

O=Cc1cc2c(cc1O)[C@]13CCCC[C@@H]1[C@H](C2)NCC3 [Example 13, (+)-2-Formyl-3-hydroxymorphinan TFA salt]
EC50 [2]: 11.6 µM

Oc1cc2c(cc1O)[C@]13CCCC[C@@H]1[C@H](C2)NCC3 [Example 10, (+)-2,3-Dihydroxymorphinan TFA salt]
EC50 [2]: 12.1 µM

Oc1ccc2c(c1Br)[C@]13CCCC[C@@H]1[C@H](C2)NCC3 [Example 7, (+)-4-Bromo-3-hydroxymorphinan TFA salt]
EC50 [2]: 12.5 µM

Oc1c(Cl)cc2c(c1Br)[C@]13CCCC[C@@H]1[C@H](C2)NCC3 [Example 8, (+)-4-Bromo-2-chloro-3-hydroxymorphinan TFA salt]
EC50 [2]: 20.2 µM

CCc1cc2c(cc1O)[C@]13CCCC[C@@H]1[C@H](C2)NCC3 [Example 84, (+)-2-Ethyl-3-hydroxymorphinan TFA salt]
EC50 [2]: 6.71 µM

CCCCOC(=O)Nc1ccccc1Nc1cc2c(cc1O)[C@]13CCCC[C@@H]1[C@H](C2)NCC3 [Example 118, (+)-2-(2-(Butoxycarbonylamino)phenylamino)-3-hydroxymorphinan TFA salt]
EC50 [2]: 0.891 µM

OCc1cc2c(cc1O)[C@]13CCCC[C@@H]1[C@H](C2)NCC3 [Example 16, (+)-3-Hydroxy-2-(hydroxymethyl)morphinan TFA salt]
EC50 [2]: > 100 µM

Oc1cc2c(cc1-c1ccccc1)C[C@@H]1NCC[C@]23CCCC[C@H]13 [Example 80, (+)-3-Hydroxy-2-phenylmorphinan TFA salt]
EC50 [2]: 9.1 µM
